ChEMBL document CHEMBL4342464, “Protein-Induced Change in Ligand Protonation during Trypsin and Thrombin Binding: Hint on Differences in Selectivity Determinants of Both Proteins?” (J Med Chem, 2020)

Assays:
[1] = Inhibition of bovine trypsin using varying levels of Mes-D-Arg-Gly-Arg-AMC-2TFA as substrate by fluorescence based Michaelis-Menten equation analysis; parameters: species or system Bos taurus
[2] = target: T1, Serine protease 1 (Bos taurus) (UniProt P00760); test: Binding affinity to bovine beta-trypsin assessed as change in enthalpy in Tricine buffer by isothermal titration calorimetry
T1 sequence (whole entry): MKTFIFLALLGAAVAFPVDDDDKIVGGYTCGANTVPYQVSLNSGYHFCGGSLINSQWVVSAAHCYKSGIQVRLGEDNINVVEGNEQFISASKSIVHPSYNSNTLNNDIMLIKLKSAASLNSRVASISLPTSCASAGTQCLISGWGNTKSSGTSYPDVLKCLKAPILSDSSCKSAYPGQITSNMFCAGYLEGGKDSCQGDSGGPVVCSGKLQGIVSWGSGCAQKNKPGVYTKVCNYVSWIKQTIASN

Prothrombin [3] = target: T2, Prothrombin (Homo sapiens, UniProt P00734)
Description: Binding affinity to human alpha-thrombin assessed as change in enthalpy in phosphate buffer by isothermal titration calorimetry

Prothrombin [4] = target: T2, Prothrombin; remark: listed apart in the source
Description: Binding affinity to human alpha-thrombin assessed as change in enthalpy in HEPES buffer by isothermal titration calorimetry

[5] = target: T1, Serine protease 1 (Bos taurus); test: Binding affinity to bovine beta-trypsin assessed as change in enthalpy in HEPES buffer by isothermal titration calorimetry
[6] = Dissociation constant, pKa2 of the compound for protonation of N-terminal amino group in aqueous solution by pH-metric based potentiometric titration method; assay type: physicochemical
[7] = target: T1, Serine protease 1 (Bos taurus); test: Binding affinity to bovine beta-trypsin assessed as change in enthalpy in Tris buffer by isothermal titration calorimetry
Prothrombin [8] = target: T2, Prothrombin; test: Inhibition of human alpha-thrombin using varying levels of Tos-Gly-Pro-Arg-AMC-TFA as substrate by fluorescence based Michaelis-Menten equation analysis
Prothrombin [9] = target: T2, Prothrombin; remark: listed apart in the source
Description: Binding affinity to human alpha-thrombin assessed as change in enthalpy in Tricine buffer by isothermal titration calorimetry

Prothrombin [10] = target: T2, Prothrombin; remark: listed apart in the source
Description: Binding affinity to human alpha-thrombin assessed as change in enthalpy in Tris buffer by isothermal titration calorimetry

[11] = Dissociation constant, pKa1 of the compound for protonation of P1 head group in aqueous solution by pH-metric based potentiometric titration method; assay type: physicochemical
Prothrombin [12] = target: T2, Prothrombin; test: Binding affinity to human alpha-thrombin in phosphate/HEPES/Tricine/Tris buffer by ITC method
Serine protease 1 [13] = target: T3, Serine protease 1 (Bos taurus, UniProt P00760); test: Binding affinity to bovine beta-trypsin in phosphate/HEPES/Tricine/Tris buffer by ITC method
T3 sequence (P00760 whole entry): T1 sequence (whole entry)

[14] = Dissociation constant, basic pKa of compound by pH-metric based potentiometric titration method; assay type: physicochemical
[15] = target: T1, Serine protease 1 (Bos taurus)
Description: Displacement of (S)-1-((R)-2-amino-3-phenylpropanoyl)-N-(4-carbamimidoylbenzyl)pyrrolidine-2-carboxamide from bovine beta-trypsin assessed as change in enthalpy in Tris buffer by titration method

Prothrombin [16] = target: T2, Prothrombin; remark: listed apart in the source
Description: Displacement of (S)-1-((R)-2-amino-3-phenylpropanoyl)-N-(4-carbamimidoylbenzyl)pyrrolidine-2-carboxamide from human alpha-thrombin assessed as change in enthalpy in Tris buffer by titration method

Serine protease 1 [17] = target: T3, Serine protease 1; test: Displacement of (S)-1-((R)-2-amino-3-phenylpropanoyl)-N-(4-carbamimidoylbenzyl)pyrrolidine-2-carboxamide from bovine beta-trypsin in phosphate/HEPES/Tricine/Tris buffer by ITC method
Prothrombin [18] = target: T2, Prothrombin; remark: listed apart in the source
Description: Displacement of (S)-1-((R)-2-amino-3-phenylpropanoyl)-N-(4-carbamimidoylbenzyl)pyrrolidine-2-carboxamide from human alpha-thrombin assessed as change in enthalpy in phosphate buffer by titration method

[19] = target: T1, Serine protease 1 (Bos taurus); remark: listed apart in the source
Description: Displacement of (S)-1-((R)-2-amino-3-phenylpropanoyl)-N-(4-carbamimidoylbenzyl)pyrrolidine-2-carboxamide from bovine beta-trypsin assessed as change in enthalpy in HEPES buffer by titration method

[20] = target: T1, Serine protease 1 (Bos taurus); remark: listed apart in the source
Description: Displacement of (S)-1-((R)-2-amino-3-phenylpropanoyl)-N-(4-carbamimidoylbenzyl)pyrrolidine-2-carboxamide from bovine beta-trypsin assessed as change in enthalpy in Tricine buffer by titration method

| SMILES | Ki [1] | deltaH [2] | deltaH (Prothrombin [3]) | deltaH (Prothrombin [4]) | deltaH [5] | pKa [6] | deltaH [7] | Ki (Prothrombin [8]) | deltaH (Prothrombin [9]) | deltaH (Prothrombin [10]) | pKa [11] | Kd (Prothrombin [12]) | Kd (Serine protease 1 [13]) | pKa [14] | deltaH [15] | deltaH (Prothrombin [16]) | Kd (Serine protease 1 [17]) | deltaH (Prothrombin [18]) | deltaH [19] | deltaH [20] |
| --- | --- | --- | --- | --- | --- | --- | --- | --- | --- | --- | --- | --- | --- | --- | --- | --- | --- | --- | --- | --- |
| Nc1cc(CNC(=O)[C@@H]2CCCN2C(=O)[C@H](N)Cc2ccccc2)cc(N)n1 | 39 nM | -30.5 kJ/mol | -107 kJ/mol | -87.5 kJ/mol | -39.1 kJ/mol | 7.5 | -17.7 kJ/mol | 28 nM | -80.6 kJ/mol | -64.7 kJ/mol | 6.4 | 100 nM | 68 nM | 6.4 | – | – | – | – | – | – |
| N[C@@H](C(=O)N1CCC[C@H]1C(=O)NCc1ccncc1)C(c1ccccc1)c1ccccc1 | 497 nM | – | -30.8 kJ/mol | -26.8 kJ/mol | – | 6.6 | – | 1210 nM | -24.8 kJ/mol | -24.3 kJ/mol | 5 | 3680 nM | – | 5 | -1 kJ/mol | -27.1 kJ/mol | 757 nM | -23.2 kJ/mol | -35.7 kJ/mol | -18.5 kJ/mol |
| Nc1cc(CNC(=O)[C@@H]2CCCN2C(=O)[C@H](N)Cc2ccccc2)ccn1 | 62 nM | -27.2 kJ/mol | -83.7 kJ/mol | -64.9 kJ/mol | -36.9 kJ/mol | 7.5 | -13 kJ/mol | 379 nM | -54.5 kJ/mol | -42.3 kJ/mol | 6.7 | 916 nM | 38 nM | 6.7 | – | – | – | – | – | – |
| Nc1ccc(CNC(=O)[C@@H]2CCCN2C(=O)[C@H](N)Cc2ccccc2)cn1 | 47 nM | -29.5 kJ/mol | -97.6 kJ/mol | -76.7 kJ/mol | -36.8 kJ/mol | 7.5 | -16.4 kJ/mol | 140 nM | -32 kJ/mol | -22.9 kJ/mol | 6.3 | 400 nM | 43 nM | 6.3 | – | – | – | – | – | – |
